Like-named read-outs stand apart in the source and are kept apart here.
Experiments:
[1] = test system: human breast MDA-MB-361 tumor cell line; assay: In vitro cell culture growth assay (MTS), MDA-MB-361; format: cell-based; details: Homo sapiens, three days after drug treatment, read-out: IC50 MDA-MB-361
[2] = biological target: PI3K-α (Homo sapiens, UniProt P42336); assay: PI3K-alpha fluorescence polarization assay; details: read-out: IC50 PI3Kα
[3] = biological target: PI3K-γ (Homo sapiens, UniProt P48736); assay: PI3K-gamma fluorescence polarization assay; details: read-out: IC50 PI3Kγ
PI3K-γ, sequence (P48736 whole entry, species assumed): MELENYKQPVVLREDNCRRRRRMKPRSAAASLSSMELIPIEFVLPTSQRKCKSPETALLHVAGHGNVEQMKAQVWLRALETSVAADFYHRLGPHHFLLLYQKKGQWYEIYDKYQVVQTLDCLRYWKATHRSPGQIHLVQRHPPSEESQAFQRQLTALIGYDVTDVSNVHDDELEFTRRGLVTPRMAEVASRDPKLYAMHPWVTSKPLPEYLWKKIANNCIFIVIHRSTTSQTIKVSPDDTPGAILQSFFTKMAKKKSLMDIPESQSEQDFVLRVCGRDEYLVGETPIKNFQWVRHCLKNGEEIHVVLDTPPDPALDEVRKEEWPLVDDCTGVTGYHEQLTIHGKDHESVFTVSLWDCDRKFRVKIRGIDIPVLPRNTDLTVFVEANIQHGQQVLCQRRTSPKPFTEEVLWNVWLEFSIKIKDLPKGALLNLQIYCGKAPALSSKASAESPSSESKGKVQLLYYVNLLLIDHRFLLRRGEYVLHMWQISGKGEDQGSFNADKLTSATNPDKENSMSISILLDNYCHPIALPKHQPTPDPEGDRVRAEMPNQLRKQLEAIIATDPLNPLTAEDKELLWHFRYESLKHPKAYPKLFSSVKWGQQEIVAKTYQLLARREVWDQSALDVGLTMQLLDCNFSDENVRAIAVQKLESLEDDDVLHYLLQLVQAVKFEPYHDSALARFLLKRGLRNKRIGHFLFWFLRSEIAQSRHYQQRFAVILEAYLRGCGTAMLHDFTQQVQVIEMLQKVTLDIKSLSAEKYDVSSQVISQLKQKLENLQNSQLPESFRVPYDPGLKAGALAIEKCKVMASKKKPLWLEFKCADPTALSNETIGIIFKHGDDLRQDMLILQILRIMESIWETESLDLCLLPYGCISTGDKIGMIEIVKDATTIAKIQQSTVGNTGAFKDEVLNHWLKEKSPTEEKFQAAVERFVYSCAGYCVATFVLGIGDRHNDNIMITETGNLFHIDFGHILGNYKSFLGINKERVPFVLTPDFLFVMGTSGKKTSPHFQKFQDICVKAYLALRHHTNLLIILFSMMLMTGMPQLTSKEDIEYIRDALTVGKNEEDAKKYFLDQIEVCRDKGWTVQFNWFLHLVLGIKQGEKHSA

[4] = test system: human prostate PC3-mm2 tumor cell line; assay: In vitro cell culture growth assay (MTS), PC3-mm2; format: cell-based; details: Homo sapiens, PC3MM2, 72 h, three days after drug treatment, read-out: IC50 PC3-mm2
[5] = biological target: Human mTOR (FLAG-TOR) (Homo sapiens, UniProt P42345); assay: mTOR kinase assay (DELFIA format, purified enzyme); format: biochemical; details: read-out: IC50 mTOR
Human mTOR (FLAG-TOR), sequence (P42345 1360-2549 limits assumed): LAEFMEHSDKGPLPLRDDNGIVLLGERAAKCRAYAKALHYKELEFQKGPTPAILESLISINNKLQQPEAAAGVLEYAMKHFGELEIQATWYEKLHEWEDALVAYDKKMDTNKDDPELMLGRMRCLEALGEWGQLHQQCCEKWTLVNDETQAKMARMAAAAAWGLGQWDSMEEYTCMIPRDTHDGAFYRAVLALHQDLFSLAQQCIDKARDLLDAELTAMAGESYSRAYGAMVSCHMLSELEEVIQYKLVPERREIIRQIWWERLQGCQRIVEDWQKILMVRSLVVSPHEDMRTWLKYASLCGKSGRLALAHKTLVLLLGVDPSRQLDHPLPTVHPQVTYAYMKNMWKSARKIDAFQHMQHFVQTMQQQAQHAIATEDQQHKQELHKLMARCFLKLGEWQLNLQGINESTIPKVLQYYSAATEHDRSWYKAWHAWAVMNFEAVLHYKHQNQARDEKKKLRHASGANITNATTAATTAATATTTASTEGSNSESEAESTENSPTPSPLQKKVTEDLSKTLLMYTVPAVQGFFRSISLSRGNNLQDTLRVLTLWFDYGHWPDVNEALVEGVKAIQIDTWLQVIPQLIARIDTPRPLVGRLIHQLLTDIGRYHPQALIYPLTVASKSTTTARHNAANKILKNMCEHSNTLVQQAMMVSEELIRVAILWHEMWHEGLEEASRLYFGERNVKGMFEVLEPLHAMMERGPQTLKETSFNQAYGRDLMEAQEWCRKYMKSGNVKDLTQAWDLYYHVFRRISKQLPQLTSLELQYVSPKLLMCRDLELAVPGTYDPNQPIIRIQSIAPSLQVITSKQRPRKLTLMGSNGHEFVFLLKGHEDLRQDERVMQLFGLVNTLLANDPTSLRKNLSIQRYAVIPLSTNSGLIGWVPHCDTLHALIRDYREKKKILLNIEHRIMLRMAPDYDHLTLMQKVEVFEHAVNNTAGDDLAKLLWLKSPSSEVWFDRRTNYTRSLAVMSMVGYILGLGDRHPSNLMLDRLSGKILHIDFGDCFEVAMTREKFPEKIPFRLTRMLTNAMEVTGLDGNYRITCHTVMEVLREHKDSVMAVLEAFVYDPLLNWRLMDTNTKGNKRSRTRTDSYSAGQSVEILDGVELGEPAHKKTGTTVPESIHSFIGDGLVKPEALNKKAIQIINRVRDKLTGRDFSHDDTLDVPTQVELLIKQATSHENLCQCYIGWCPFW

[6] = MDA-MB-361, 72 h, MTS cell growth assay, MDA-MB-361 cells
[7] = MTS cell growth assay, PC3-mm2 cells
[8] = MDA-MB-361, 72 h, MTS cell growth assay
[9] = 72 h, MTS cell growth assay, MDA-MB-361 cells

PI3K-α, sequence (P42336 whole entry, species assumed): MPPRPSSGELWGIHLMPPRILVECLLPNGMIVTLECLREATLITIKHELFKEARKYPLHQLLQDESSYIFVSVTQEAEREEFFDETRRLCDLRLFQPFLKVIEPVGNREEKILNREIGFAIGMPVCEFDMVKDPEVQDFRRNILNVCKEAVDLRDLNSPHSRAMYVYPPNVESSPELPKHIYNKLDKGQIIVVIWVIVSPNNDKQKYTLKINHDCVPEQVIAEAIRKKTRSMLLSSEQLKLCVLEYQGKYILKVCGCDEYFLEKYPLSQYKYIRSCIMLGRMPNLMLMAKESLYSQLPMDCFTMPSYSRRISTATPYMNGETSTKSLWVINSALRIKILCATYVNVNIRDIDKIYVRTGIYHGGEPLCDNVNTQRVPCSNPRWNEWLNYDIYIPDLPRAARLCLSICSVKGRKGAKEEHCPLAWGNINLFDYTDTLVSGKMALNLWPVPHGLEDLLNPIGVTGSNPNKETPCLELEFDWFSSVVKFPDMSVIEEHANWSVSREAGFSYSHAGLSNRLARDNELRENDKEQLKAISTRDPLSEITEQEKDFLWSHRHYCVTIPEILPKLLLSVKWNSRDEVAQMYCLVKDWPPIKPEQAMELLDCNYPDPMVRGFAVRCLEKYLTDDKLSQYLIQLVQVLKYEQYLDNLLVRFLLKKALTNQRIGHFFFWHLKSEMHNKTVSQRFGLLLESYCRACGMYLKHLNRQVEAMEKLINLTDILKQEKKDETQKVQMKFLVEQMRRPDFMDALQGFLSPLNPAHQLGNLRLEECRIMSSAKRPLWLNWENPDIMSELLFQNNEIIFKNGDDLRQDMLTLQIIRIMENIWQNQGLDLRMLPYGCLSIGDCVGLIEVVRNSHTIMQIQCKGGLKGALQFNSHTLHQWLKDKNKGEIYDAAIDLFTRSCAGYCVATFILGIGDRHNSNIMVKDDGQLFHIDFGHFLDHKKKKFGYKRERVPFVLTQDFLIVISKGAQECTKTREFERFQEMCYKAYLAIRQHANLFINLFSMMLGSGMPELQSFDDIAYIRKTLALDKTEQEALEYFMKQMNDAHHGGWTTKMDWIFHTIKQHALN
PI3K-α, sequence (P27986 whole entry partner, species assumed): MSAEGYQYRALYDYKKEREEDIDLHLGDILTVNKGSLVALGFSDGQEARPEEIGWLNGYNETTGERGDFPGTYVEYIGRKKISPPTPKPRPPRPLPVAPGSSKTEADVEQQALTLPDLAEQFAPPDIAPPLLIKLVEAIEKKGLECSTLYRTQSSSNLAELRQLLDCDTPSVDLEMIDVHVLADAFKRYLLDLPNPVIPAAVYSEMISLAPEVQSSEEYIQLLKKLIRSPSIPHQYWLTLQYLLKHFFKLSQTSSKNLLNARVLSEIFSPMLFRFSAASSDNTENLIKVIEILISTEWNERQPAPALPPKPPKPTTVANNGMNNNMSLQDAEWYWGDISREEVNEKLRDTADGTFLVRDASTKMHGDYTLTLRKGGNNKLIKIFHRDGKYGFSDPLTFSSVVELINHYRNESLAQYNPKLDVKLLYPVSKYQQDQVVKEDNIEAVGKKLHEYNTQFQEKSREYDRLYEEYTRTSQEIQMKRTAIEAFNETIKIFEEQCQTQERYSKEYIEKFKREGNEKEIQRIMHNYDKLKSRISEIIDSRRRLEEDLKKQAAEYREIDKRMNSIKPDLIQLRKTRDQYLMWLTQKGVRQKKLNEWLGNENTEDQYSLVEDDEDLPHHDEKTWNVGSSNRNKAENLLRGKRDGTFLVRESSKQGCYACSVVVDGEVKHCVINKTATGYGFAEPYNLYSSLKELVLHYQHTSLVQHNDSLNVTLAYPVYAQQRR

## O=C(Nc1ccc(C(=O)N2CCNCC2)cc1)Nc1ccc(-c2nc(N3CCOCC3)nc(N3C4COCC3COC4)n2)cc1 [Example 772, 1-{4-[4-(3,7-dioxa-9-azabicyclo[3.3.1]non-9-yl)-6-morpholin-4-yl-1,3,5-triazin-2-yl]phenyl}-3-[4-(piperazin-1-ylcarbonyl)phenyl]urea]
[1]; [6]
  IC50: 0.005 µM
[2]
  IC50: 0.0008 µM
[3]
  IC50: 0.0095 µM
[4]; [7]
  IC50: 0.015 µM
[5]
  IC50: 0.00029 µM

## CCCCc1nc(-c2ccc(NC(=O)Nc3ccc(CNCCN(C)C)cc3)cc2)nc(N2CCOCC2)n1 [Example 252, 1-[4-(4-butyl-6-morpholin-4-yl-1,3,5-triazin-2-yl)phenyl]-3-[4-({[2-(dimethylamino)ethyl]amino}methyl)phenyl]urea]
[1]; [8]
  IC50: 0.219 µM
[2]
  IC50: 0.022 µM
[3]
  IC50: 0.184 µM
[4]; MTS cell growth assay
  IC50: 0.747 µM
[5]
  IC50: 0.018 µM

## O=C(Nc1ccc(C(=O)N2CCC(N3CCCC3)CC2)cc1)Nc1ccc(-c2nc(N3CCOCC3)nc(N3C4CCCC3COC4)n2)cc1 [Example 800, 1-{4-[4-morpholin-4-yl-6-(3-oxa-9-azabicyclo[3.3.1]non-9-yl)-1,3,5-triazin-2-yl]phenyl}-3-{4-[(4-pyrrolidin-1-ylpiperidin-1-yl)carbonyl]phenyl}urea]
[1]; MDA-MB-361, 72 h, MDA-MB-361 cells, MTS
  IC50: 0.001 µM
[2]
  IC50: 0.0055 µM
[3]
  IC50: 0.0355 µM
[4]; PC3-mm2 cells, MTS
  IC50: 0.011 µM
[5]
  IC50: 0.00072 µM

## CC(C)N1CCN(C(=O)c2ccc(NC(=O)Nc3ccc(-c4nc(N5CCCC5)nc(N5CCOCC5)n4)cc3)cc2)CC1 [Example 603, 1-(4-{[4-(1-methylethyl)piperazin-1-yl]carbonyl}phenyl)-3-[4-(4-morpholin-4-yl-6-pyrrolidin-1-yl-1,3,5-triazin-2-yl)phenyl]urea]
[1]; [6]
  IC50: 0.017 µM
[2]
  IC50: 0.0085 µM
[3]
  IC50: 0.0505 µM
[4]; [7]
  IC50: 0.137 µM
[5]
  IC50: 0.017 µM

## COCCNC(=O)c1ccc(NC(=O)Nc2ccc(-c3nc(N4CCOC[C@@H]4C)nc(N4CCOC[C@@H]4C)n3)cc2)cc1 [Example 639, 4-{[(4-{4,6-bis[(3S)-3-methylmorpholin-4-yl]-1,3,5-triazin-2-yl}phenyl)carbamoyl]amino}-N-(2-methoxyethyl)benzamide]
[1]; [9]
  IC50: 0.016 µM
[2]
  IC50: 0.0145 µM
[3]
  IC50: 0.123 µM
[4]; [7]
  IC50: 0.027 µM
[5]
  IC50: 0.001 µM

## CCc1nc(-c2ccc(NC(=O)Nc3ccc(C(=O)O)cc3)cc2)nc(N2CCOCC2)n1 [Example 233, 4-({[4-(4-ethyl-6-morpholin-4-yl-1,3,5-triazin-2-yl)phenyl]carbamoyl}amino)benzoic acid]
[1]; [8]
  IC50: 1.21 µM
[2]
  IC50: 0.055 µM
[3]
  IC50: 0.121 µM
[4]; MTS cell growth assay
  IC50: 3.34 µM
[5]
  IC50: 0.0079 µM

## O=C(Nc1ccncc1)Nc1ccc(-c2nc(N3CCOCC3)nc(N3C4COCC3COC4)n2)cc1 [Example 765, 1-{4-[4-(3,7-dioxa-9-azabicyclo[3.3.1]non-9-yl)-6-morpholin-4-yl-1,3,5-triazin-2-yl]phenyl}-3-pyridin-4-ylurea]
[1]; [9]
  IC50: 0.021 µM
[2]
  IC50: 0.0085 µM
[3]
  IC50: 0.0785 µM
[4]; [7]
  IC50: 0.027 µM
[5]
  IC50: 0.000195 µM

## O=C(Nc1ccccc1)Nc1ccc(-c2nc(OC3CCOCC3)nc(N3CCOCC3)n2)cc1 [Example 60, 1-{4-[4-morpholin-4-yl-6-(tetrahydro-2H-pyran-4-yloxy)-1,3,5-triazin-2-yl]phenyl}-3-phenylurea]
[1]; [8]
  IC50: 0.083 µM
[2]
  IC50: 0.005 µM
[3]
  IC50: 0.036 µM
[4]; MTS cell growth assay
  IC50: 0.092 µM
[5]
  IC50: 0.0018 µM

## CN(C)CCNC(=O)c1ccc(NC(=O)Nc2ccc(-c3nc(-c4cccs4)nc(N4CCOCC4)n3)cc2)cc1 [Example 563, N-[2-(dimethylamino)ethyl]-4-[({4-[4-morpholin-4-yl-6-(2-thienyl)-1,3,5-triazin-2-yl]phenyl}carbamoyl)amino]benzamide]
[1]; [9]
  IC50: 0.01 µM
[2]
  IC50: 0.0025 µM
[3]
  IC50: 0.0335 µM
[4]; [7]
  IC50: 0.171 µM
[5]
  IC50: 0.003 µM

## CN(C)CCNC(=O)c1ccc(NC(=O)Nc2ccc(-c3nc(-c4ccccc4)nc(N4CCOCC4)n3)cc2)cc1 [Example 545, N-[2-(dimethylamino)ethyl]-4-({[4-(4-morpholin-4-yl-6-phenyl-1,3,5-triazin-2-yl)phenyl]carbamoyl}amino)benzamide]
[1]; [9]
  IC50: 0.03 µM
[2]
  IC50: 0.004 µM
[3]
  IC50: 0.017 µM
[4]; [7]
  IC50: 0.219 µM
[5]
  IC50: 0.0109 µM

## O=C(Nc1ccncc1)Nc1ccc(-c2nc(OC3CCNCC3)nc(N3CCOCC3)n2)cc1 [Example 688, 1-{4-[4-morpholin-4-yl-6-(piperidin-4-yloxy)-1,3,5-triazin-2-yl]phenyl}-3-pyridin-4-ylurea]
[1]; [9]
  IC50: 1.41 µM
[2]
  IC50: 0.003 µM
[3]
  IC50: 0.0355 µM
[4]; [7]
  IC50: 1.95 µM
[5]
  IC50: 0.008 µM

## O=C(Nc1ccc(C(=O)NCCN2CCCC2)cc1)Nc1ccc(-c2nc(N3CCOCC3)nc(N3C4CCCC3COC4)n2)cc1 [Example 798, 4-[({4-[4-morpholin-4-yl-6-(3-oxa-9-azabicyclo[3.3.1]non-9-yl)-1,3,5-triazin-2-yl]phenyl}carbamoyl)amino]-N-(2-pyrrolidin-1-ylethyl)benzamide]
[1]; 72 h, MDA-MB-361 cells, MTS
  IC50: 0.003 µM
[2]
  IC50: 0.0041 µM
[3]
  IC50: 0.0435 µM
[4]; PC3-mm2 cells, MTS
  IC50: 0.024 µM
[5]
  IC50: 0.000445 µM

## CC(C)N1CCN(C(=O)c2ccc(NC(=O)Nc3ccc(-c4nc(N5CCOCC5)nc(N5C6COCC5COC6)n4)cc3)cc2)CC1 [Example 773, 1-{4-[4-(3,7-dioxa-9-azabicyclo[3.3.1]non-9-yl)-6-morpholin-4-yl-1,3,5-triazin-2-yl]phenyl}-3-{4-[(4-isopropylpiperazin-1-yl)carbonyl]phenyl}urea]
[1]; [6]
  IC50: 0.004 µM
[2]
  IC50: 0.003 µM
[3]
  IC50: 0.0365 µM
[4]; [7]
  IC50: 0.006 µM
[5]
  IC50: 0.000305 µM

## CN1CCCN(C(=O)Nc2ccc(NC(=O)Nc3ccc(-c4nc(N5CCOCC5)nc(N5CCOCC5)n4)cc3)cc2)CC1 [Example 502, N-[4-({[4-(4,6-dimorpholin-4-yl-1,3,5-triazin-2-yl)phenyl]carbamoyl}amino)phenyl]-4-methyl-1,4-diazepane-1-carboxamide]
[1]; [9]
  IC50: 0.004 µM
[2]
  IC50: 0.0005 µM
[3]
  IC50: 0.006 µM
[4]; [7]
  IC50: 0.011 µM
[5]
  IC50: 0.001 µM

## CC(=O)c1nc(-c2ccc(NC(=O)Nc3ccncc3)cc2)nc(N2CCOCC2)n1 [Example 209, 1-[4-(4-acetyl-6-morpholin-4-yl-1,3,5-triazin-2-yl)phenyl]-3-pyridin-4-ylurea]
[1]; [8]
  IC50: 0.174 µM
[2]
  IC50: 0.024 µM
[3]
  IC50: 0.099 µM
[4]; MTS cell growth assay
  IC50: 0.278 µM
[5]
  IC50: 0.009 µM

## O=C(Nc1ccc(C(=O)O)cc1)Nc1ccc(-c2nc(-c3cccs3)nc(N3CCOCC3)n2)cc1 [Example 558, 4-[({4-[4-morpholin-4-yl-6-(2-thienyl)-1,3,5-triazin-2-yl]phenyl}carbamoyl)amino]benzoic acid]
[1]; [9]
  IC50: 0.751 µM
[2]
  IC50: 0.017 µM
[3]
  IC50: 0.041 µM
[4]; [7]
  IC50: 0.939 µM
[5]
  IC50: 0.0061 µM

## CN1CCN(CCNC(=O)c2ccc(NC(=O)Nc3ccc(-c4nc(N5CCOCC5)nc(N5C6CCC5COC6)n4)cc3)cc2)CC1 [Example 753, N-[2-(4-methylpiperazin-1-yl)ethyl]-4-[({4-[4-morpholin-4-yl-6-(3-oxa-8-azabicyclo[3.2.1]oct-8-yl)-1,3,5-triazin-2-yl]phenyl}carbamoyl)amino]benzamide]
[1]; [9]
  IC50: 0.004 µM
[2]
  IC50: 0.002 µM
[3]
  IC50: 0.031 µM
[4]; [7]
  IC50: 0.014 µM
[5]
  IC50: 0.000315 µM

## O=C(Nc1ccc(F)cc1)Nc1ccc(-c2nc(N3CCOCC3)nc(N3CC4CCC(C3)O4)n2)cc1 [Example 24, 1-(4-fluorophenyl)-3-{4-[4-morpholin-4-yl-6-(8-oxa-3-azabicyclo[3.2.1]oct-3-yl)-1,3,5-triazin-2-yl]phenyl}urea]
[1]; [8]
  IC50: 0.122 µM
[2]
  IC50: 0.022 µM
[3]
  IC50: 0.099 µM
[4]; MTS cell growth assay
  IC50: 0.142 µM
[5]
  IC50: 0.0027 µM

## COCCNC(=O)c1ccc(NC(=O)Nc2ccc(-c3nc(N4CCOCC4)nc(N4C5CCCC4COC5)n3)cc2)cc1 [Example 797, N-(2-methoxyethyl)-4-[({4-[4-morpholin-4-yl-6-(3-oxa-9-azabicyclo[3.3.1]non-9-yl)-1,3,5-triazin-2-yl]phenyl}carbamoyl)amino]benzamide]
[1]; 72 h, MDA-MB-361 cells, MTS
  IC50: 0.011 µM
[2]
  IC50: 0.0115 µM
[3]
  IC50: 0.076 µM
[4]; PC3-mm2 cells, MTS
  IC50: 0.029 µM
[5]
  IC50: 0.0013 µM

## CCN1CCN(C(=O)c2ccc(NC(=O)Nc3ccc(-c4nc(N5CCOC[C@H]5C)nc(N5CCOC[C@@H]5C)n4)cc3)cc2)CC1 [Example 625, 1-{4-[(4-ethylpiperazin-1-yl)carbonyl]phenyl}-3-(4-{4-[(3R)-3-methylmorpholin-4-yl]-6-[(3S)-3-methylmorpholin-4-yl]-1,3,5-triazin-2-yl}phenyl)urea]
[1]; [9]
  IC50: 0.012 µM
[2]
  IC50: 0.0165 µM
[3]
  IC50: 0.103 µM
[4]; [7]
  IC50: 0.043 µM
[5]
  IC50: 0.003 µM

## C[C@H]1COCCN1c1nc(-c2ccc(NC(=O)Nc3ccc(C(=O)NCCCN(C)C)cc3)cc2)nc(N2CCOCC2)n1 [Example 621, N-[3-(dimethylamino)propyl]-4-{[(4-{4-[(3S)-3-methylmorpholin-4-yl]-6-morpholin-4-yl-1,3,5-triazin-2-yl}phenyl)carbamoyl]amino}benzamide]
[1]; [9]
  IC50: 0.008 µM
[2]
  IC50: 0.0035 µM
[3]
  IC50: 0.0435 µM
[4]; [7]
  IC50: 0.035 µM
[5]
  IC50: 0.001 µM

Reference: patent publication US20090304692A1, “TRIAZINE COMPOUNDS AS PI3 KINASE AND MTOR INHIBITORS” (Wyeth, priority 2008, published 2009)
